Measurements published in ChEMBL document CHEMBL1909294, “Translating clinical findings into knowledge in drug safety evaluation--drug induced liver injury prediction system (DILIps)” (PLoS Comput Biol, 2011).
Where a SMILES comes first, the peptide text is derived from it. Bridges are numbered along the chain shown (N, C = ends). [ ]: non-standard residue; d: D form. The star is where a group is joined. Threoninol(2S,3R) = C[C@@H](O)[C@H](CO)N*

Legend:
Hepatotoxicity [1] = system: Hepatotoxicity;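 as to HepSE cirrhosis: cirrhosis hepatic side effect score taken from the DILIps (drug-induced liver injury prediction) training set; call rule not given here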;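 as to HepSE hepatic necrosis: score of hepatic side effects for hepatic necrosis, drawn from the training data of DILIps, a prediction system for drug-induced liver injury; call rule not given here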;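 as to HepSE hepatomegaly: hepatic side effect score for hepatomegaly, taken from the training set of the DILIps drug-induced liver injury prediction system; call rule not given here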;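 as to HepSE jaundice: Jaundice-related hepatic side-effect score drawn from the training data of the DILIps (drug-induced liver injury prediction system); call rule not given here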;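 as to HepSE liver fatty: hepatic side effect score for fatty liver, taken from the DILIps training set for predicting drug-induced liver injury; call rule not given here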;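 as to HepSE liver function tests abnormal: hepatic side effect score taken from the DILIps (drug-induced liver injury prediction system) training data, here covering abnormal liver function test findings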
Hepatotoxicity [2] = system: Hepatotoxicity; remark: listed apart in the source;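 as to HepSE cirrhosis: cirrhosis hepatic side effect score taken from the DILIps (drug-induced liver injury prediction) training set; call rule not given here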;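 as to HepSE hepatic necrosis: score of hepatic side effects for hepatic necrosis, drawn from the training data of DILIps, a prediction system for drug-induced liver injury; call rule not given here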;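 as to HepSE hepatomegaly: hepatic side effect score for hepatomegaly, taken from the training set of the DILIps drug-induced liver injury prediction system; call rule not given here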;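 as to HepSE jaundice: Jaundice-related hepatic side-effect score drawn from the training data of the DILIps (drug-induced liver injury prediction system); call rule not given here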;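 as to HepSE liver fatty: hepatic side effect score for fatty liver, taken from the DILIps training set for predicting drug-induced liver injury; call rule not given here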;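 as to HepSE liver function tests abnormal: hepatic side effect score taken from the DILIps (drug-induced liver injury prediction system) training data, here covering abnormal liver function test findings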
Hepatotoxicity [3] = system: Hepatotoxicity; remark: listed apart in the source;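 as to HepSE cirrhosis: cirrhosis hepatic side effect score taken from the DILIps (drug-induced liver injury prediction) training set; call rule not given here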;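 as to HepSE hepatic necrosis: score of hepatic side effects for hepatic necrosis, drawn from the training data of DILIps, a prediction system for drug-induced liver injury; call rule not given here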;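 as to HepSE jaundice: Jaundice-related hepatic side-effect score drawn from the training data of the DILIps (drug-induced liver injury prediction system); call rule not given here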;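 as to HepSE liver fatty: hepatic side effect score for fatty liver, taken from the DILIps training set for predicting drug-induced liver injury; call rule not given here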;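 as to HepSE liver function tests abnormal: hepatic side effect score taken from the DILIps (drug-induced liver injury prediction system) training data, here covering abnormal liver function test findings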
Hepatotoxicity [4] = system: Hepatotoxicity; remark: listed apart in the source;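 as to HepSE cirrhosis: cirrhosis hepatic side effect score taken from the DILIps (drug-induced liver injury prediction) training set; call rule not given here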;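 as to HepSE hepatic necrosis: score of hepatic side effects for hepatic necrosis, drawn from the training data of DILIps, a prediction system for drug-induced liver injury; call rule not given here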;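 as to HepSE jaundice: Jaundice-related hepatic side-effect score drawn from the training data of the DILIps (drug-induced liver injury prediction system); call rule not given here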;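 as to HepSE liver fatty: hepatic side effect score for fatty liver, taken from the DILIps training set for predicting drug-induced liver injury; call rule not given here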;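 as to HepSE liver function tests abnormal: hepatic side effect score taken from the DILIps (drug-induced liver injury prediction system) training data, here covering abnormal liver function test findings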
Hepatotoxicity [5] = system: Hepatotoxicity; remark: listed apart in the source
Hepatotoxicity [6] = system: Hepatotoxicity; remark: listed apart in the source
Hepatotoxicity [7] = system: Hepatotoxicity; remark: listed apart in the source
Hepatotoxicity [8] = system: Hepatotoxicity; remark: listed apart in the source
Hepatotoxicity [9] = system: Hepatotoxicity; remark: listed apart in the source
Hepatotoxicity [10] = system: Hepatotoxicity; remark: listed apart in the source
Hepatotoxicity [11] = system: Hepatotoxicity; remark: listed apart in the source
Hepatotoxicity [12] = system: Hepatotoxicity; remark: listed apart in the source
Hepatotoxicity [13] = system: Hepatotoxicity; remark: listed apart in the source
Hepatotoxicity [14] = system: Hepatotoxicity; remark: listed apart in the source

| SMILES | HepSE_jaundice (Hepatotoxicity [1]) | HepSE_liver function tests abnormal (Hepatotoxicity [2]) | HepSE_liver fatty (Hepatotoxicity [3]) | HepSE_hepatic necrosis (Hepatotoxicity [4]) | HepSE_cirrhosis (Hepatotoxicity [5]) | HepSE_hepatitis (Hepatotoxicity [6]) | HepSE_hepatomegaly (Hepatotoxicity [7]) | HepSE_hepatic failure (Hepatotoxicity [8]) | HepSE_cholecystitis (Hepatotoxicity [9]) | HepSE_cholelithiasis (Hepatotoxicity [10]) | HepSE_elevated liver function tests (Hepatotoxicity [11]) | HepSE_Combined Scores (Hepatotoxicity [12]) | HepSE_bilirubinemia (Hepatotoxicity [13]) | HepSE_liver disease (Hepatotoxicity [14]) | other results |
| --- | --- | --- | --- | --- | --- | --- | --- | --- | --- | --- | --- | --- | --- | --- | --- |
| CCCCN1C[C@H](O)[C@@H](O)[C@H](O)[C@H]1CO | 0 | 0 | 0 | 0 | 0 | 0 | 0 | 0 | 0 | 0 | 0 | 0 | 0 | 0 | – |
| CC(C)(C)NC(=O)[C@@H]1C[C@@H]2CCCC[C@@H]2CN1C[C@@H](O)[C@H](Cc1ccccc1)NC(=O)[C@H](CC(N)=O)NC(=O)c1ccc2ccccc2n1 | – | – | – | – | – | – | – | – | – | – | – | – | – | – | HepSE_jaundice (Hepatotoxicity [1]; Liver): 1; HepSE_liver function tests abnormal (Hepatotoxicity [2]; Liver): 0; HepSE_liver fatty (Hepatotoxicity [3]; Liver): 0; HepSE_hepatic necrosis (Hepatotoxicity [4]; Liver): 0; HepSE_cirrhosis (Hepatotoxicity [5]; Liver): 0; HepSE_hepatitis (Hepatotoxicity [6]; Liver): 1; HepSE_hepatomegaly (Hepatotoxicity [7]; Liver): 1; HepSE_hepatic failure (Hepatotoxicity [8]; Liver): 0; HepSE_cholecystitis (Hepatotoxicity [9]; Liver): 0; HepSE_cholelithiasis (Hepatotoxicity [10]; Liver): 1; HepSE_elevated liver function tests (Hepatotoxicity [11]; Liver): 1; HepSE_Combined Scores (Hepatotoxicity [12]; Liver): 7; HepSE_bilirubinemia (Hepatotoxicity [13]; Liver): 1; HepSE_liver disease (Hepatotoxicity [14]; Liver): 1 |
| COc1cc2c(cc1OC)[C@@H](Cc1cc(OC)c(OC)c(OC)c1)[N+](C)(CCCOC(=O)CC/C=C/CCC(=O)OCCC[N+]1(C)CCc3cc(OC)c(OC)cc3[C@H]1Cc1cc(OC)c(OC)c(OC)c1)CC2 (some centres undefined) | 0 | 0 | 0 | 0 | 0 | 0 | 0 | 0 | 0 | 0 | 0 | 0 | 0 | 0 | – |
| C[C@@H](NCCCc1cccc(C(F)(F)F)c1)c1cccc2ccccc12 | 0 | 0 | 0 | 0 | 0 | 0 | 0 | 0 | 0 | 0 | 0 | 0 | 0 | 0 | – |
| Nc1ncnc2c1ncn2[C@@H]1O[C@H](COP(=O)(S)S)[C@@H](O)[C@H]1O | 1 | 0 | 0 | 1 | 1 | 1 | 0 | 1 | 0 | 0 | 1 | 6 | 0 | 0 | – |
| OC[C@H]1O[C@@H](O)[C@@H](F)[C@@H](O)[C@@H]1O | 0 | 0 | 0 | 0 | 0 | 0 | 0 | 0 | 0 | 0 | 0 | 0 | 0 | 0 | – |
| CC(C)CN(C[C@@H](O)[C@H](Cc1ccccc1)NC(=O)O[C@H]1CO[C@H]2OCC[C@H]21)S(=O)(=O)c1ccc(N)cc1 | 1 | 0 | 0 | 0 | 1 | 1 | 0 | 1 | 0 | 0 | 0 | 5 | 1 | 0 | – |
| CC(=O)[C@@]1(O)CC[C@H]2[C@@H]3C[C@H](C)C4=CC(=O)CC[C@]4(C)[C@H]3CC[C@@]21C | – | – | – | – | – | – | – | – | – | – | – | – | – | – | HepSE_jaundice (Hepatotoxicity [1]; Liver): 1; HepSE_liver function tests abnormal (Hepatotoxicity [2]; Liver): 0; HepSE_liver fatty (Hepatotoxicity [3]; Liver): 0; HepSE_hepatic necrosis (Hepatotoxicity [4]; Liver): 0; HepSE_cirrhosis (Hepatotoxicity [5]; Liver): 0; HepSE_hepatitis (Hepatotoxicity [6]; Liver): 1; HepSE_hepatomegaly (Hepatotoxicity [7]; Liver): 1; HepSE_hepatic failure (Hepatotoxicity [8]; Liver): 1; HepSE_cholecystitis (Hepatotoxicity [9]; Liver): 0; HepSE_cholelithiasis (Hepatotoxicity [10]; Liver): 1; HepSE_elevated liver function tests (Hepatotoxicity [11]; Liver): 0; HepSE_Combined Scores (Hepatotoxicity [12]; Liver): 5; HepSE_bilirubinemia (Hepatotoxicity [13]; Liver): 0; HepSE_liver disease (Hepatotoxicity [14]; Liver): 0 |
| COCCCOc1cc(C[C@@H](C[C@H](N)[C@@H](O)C[C@H](C(=O)NCC(C)(C)C(N)=O)C(C)C)C(C)C)ccc1OC | 0 | 0 | 0 | 0 | 0 | 0 | 0 | 0 | 0 | 0 | 0 | 0 | 0 | 0 | – |
| CO/N=C(\C(=O)N[C@@H]1C(=O)N2C(C(=O)[O-])=C(C[N+]3(C)CCCC3)CS[C@H]12)c1csc(N)n1 | 0 | 0 | 0 | 0 | 0 | 0 | 0 | 1 | 0 | 0 | 0 | 1 | 0 | 0 | – |
| O=S(=O)(OC[C@H]1O[C@@H](O[C@]2(COS(=O)(=O)[O][Al]([OH])[OH])O[C@H](OS(=O)(=O)[O][Al]([OH])[OH])[C@@H](OS(=O)(=O)[O][Al]([OH])[OH])[C@@H]2OS(=O)(=O)[O][Al]([OH])[OH])[C@H](OS(=O)(=O)[O][Al]([OH])[OH])[C@@H](OS(=O)(=O)[O][Al]([OH])[OH])[C@@H]1OS(=O)(=O)[O][Al]([OH])[OH])[O][Al]([OH])[OH].[OH][Al]([OH])[OH].[OH][Al]([OH])[OH].[OH][Al]([OH])[OH].[OH][Al]([OH])[OH].[OH][Al]([OH])[OH].[OH][Al]([OH])[OH].[OH][Al]([OH])[OH].[OH][Al]([OH])[OH] | 0 | 0 | 0 | 0 | 0 | 0 | 0 | 0 | 0 | 0 | 0 | 0 | 0 | 0 | – |
| CC(C)(C)NC(=O)[C@@H]1CN(Cc2cccnc2)CCN1C[C@@H](O)C[C@@H](Cc1ccccc1)C(=O)N[C@H]1c2ccccc2C[C@H]1O.O | 1 | 0 | 0 | 0 | 0 | 1 | 0 | 1 | 0 | 0 | 0 | 4 | 1 | 0 | – |
| CN1CC(=O)N2[C@H](c3ccc4c(c3)OCO4)c3[nH]c4ccccc4c3C[C@@H]2C1=O | 0 | 1 | 0 | 0 | 0 | 0 | 0 | 0 | 0 | 0 | 0 | 1 | 0 | 0 | – |
| C[C@@H](O)[C@H](CO)NC(=O)[C@@H]1CSSC[C@H](NC(=O)[C@H](N)Cc2ccccc2)C(=O)N[C@@H](Cc2ccccc2)C(=O)N[C@H](Cc2c[nH]c3ccccc23)C(=O)N[C@@H](CCCCN)C(=O)N[C@@H]([C@@H](C)O)C(=O)N1 (H-[dF]CF[dW]KTC-{Threoninol(2S,3R)}; disulfide 2-7) | 1 | 0 | 1 | 0 | 0 | 1 | 0 | 0 | 1 | 1 | 0 | 6 | 1 | 0 | – |
| CC(C)=CCN1CC[C@]2(C)c3cc(O)ccc3C[C@H]1[C@H]2C [(+)-PENTAZOCINE] | 0 | 0 | 0 | 0 | 0 | 0 | 0 | 0 | 0 | 0 | 0 | 0 | 0 | 0 | – |
| Nc1nc(NC2CC2)c2ncn([C@H]3C=C[C@@H](CO)C3)c2n1 [ABACAVIR] | 0 | 0 | 1 | 0 | 0 | 0 | 0 | 1 | 0 | 0 | 1 | 3 | 0 | 0 | – |
